Assay results from patent publication US11066650B2, “Methods for the in vitro manufacture of gastric fundus tissue and compositions related to same” (Children's Hospital Medical Center, priority 2016, dated 2021).

What was measured:
[1] = test system: posterior foregut spheroids; assay: Gastric specification of posterior foregut spheroids into fundic hGOs (qPCR/staining); format: cell-based, human
Method: Posterior foregut spheroids were collected and transferred to a three-dimensional culture system as previously described^36. Briefly, spheroids were suspended in 50 μl Matrigel (BD Biosciences) and plated as a droplet into 24-well plates. The matrigel was allowed to solidify for 10 minutes in the tissue culture incubator, then overlayed with basic gut media (BGM) containing growth factors and/or small molecule agonsists. BGM consisted of Advanced DMEM/F12 media (Gibco) supplemented with N2 (1×; Invitrogen), B27 (1×; Invitrogen), HEPES ([…]; Gibco), L-glutamine, penicillin/streptomycin, and EGF (100 ng/ml; R&D Systems). During days 6-9, spheroids were cultured with RA and noggin to specify the antral lineage. For fundic specification, CHIR was added during this stage. Antral hGOs were subsequently cultured in BGM with only EGF. Fundic hGOs were continuously exposed to CHIR from day 6-30. […] On day 20, organoids were collected and re-plated at a dilution of 1:10-1:20.
(§1) Total RNA was isolated using Nucleospin RNA II kit (Machery Nagel) and converted to cDNA as previously described7. qPCR was performed on Quantstudio 6 (Applied Biosystems) using Quantitect SYBR-Green master mix (Qiagen), and primer sequences are listed below.

hFGOs [2] = assay: Screen for factors that increase parietal cell differentiation in hFGOs (qPCR at day 34); format: cell-based, human; details: for parietal cell gene expression (ATP4A and ATP4B): day 30 hFGOs exposed two days, analysed at day 34
Method: For screening experiments to identify factors that increase parietal cell differentiation, hFGOs were grown to day 30, then exposed for two days to individual signaling pathway agonists and antagonists: DAPT (1 μM; Stemgent), SB431542 (10 μM; Stemgent), BMP4 (50 ng/ml; R&D Systems), PD0325901 (2 μM; Stemgent), Gastrin (10 nM; Sigma Aldrich), Dexamethasone (50 nM; Sigma Aldrich), and Wnt5a (50 ng/ml; R&D Systems). Following treatment, hFGOs were grown for two more days to day 34, then analyzed by qPCR.
as §1

hFGOs [3] = assay: Acid secretion assay, luminal pH by SNARF-5F in fundic hGOs; format: cell-based, human
Method: Acid secretion assays were performed as previously described (Schumacher et al., 2015). hGOs were grown in the chambered coverglass (Thermo Scientific) and the chamber was placed on an inverted confocal microscope (Zeiss LSM 710), and experiments were performed under 5% CO2 and 37° C. conditions (incubation chamber, PeCon, Erbach, Germany).
(§2) Freshly isolated mouse gastric fundic glands or cultured hGO were incubated with acridine orange (10 μM), then acridine orange fluorescence was excited at 458 nm or 488 nm and images were collected at 600-650 nm (Red) or 500-550 nm (Green), respectively. On the other hand, to monitor hGOs luminal pH, the ratiometric pH sensitive dye, 5-(and-6)-carboxy SNARF-5F (5 mM stock: EX 560 nm, EM 565-605 (Green) and 620-680 (Red) nm: Invitrogen) was microinjected (46-92 nl) into the lumen and monitored. Fluorescent dye also added into medium. Histamine (100 μM; Sigma) was added to media, while famotidine (100 μM; Sigma) or omeprazole (100 μM; Sigma) were pre-incubated at least 30 min before histamine. Images were analyzed using MetaMorph software (Molecular Devices, Downingtown, Pa.). Background corrected 620-680/565-605 nm ratio values were converted to pH using a standard curve.

hAGOs = details: histamine 100 μM
Method: as §2, with “Acid secretion assays were performed as previously described (Schumacher et al., 2015). hGOs were grown in the chambered coverglass (Thermo Scientific) and the chamber was placed on an inverted confocal microscope (Zeiss LSM 710), and experiments were performed under 5% CO2 and 37° C. conditions (incubation chamber, PeCon, Erbach, Germany). Freshly” for “Freshly”, “Histamine (100 μM;” left out

hFGOs [4] = details: histamine, hFGO glands
Method: as §2, with “Acid secretion assays were performed as previously described (Schumacher et al., 2015). hGOs were grown in the chambered coverglass (Thermo Scientific) and the chamber was placed on an inverted confocal microscope (Zeiss LSM 710), and experiments were performed under 5% CO2 and 37° C. conditions (incubation chamber, PeCon, Erbach, Germany). Freshly” for “Freshly”, “Histamine (100 μM;” left out

[5] = test system: isolated mouse gastric glands; details: histamine, after 60 minutes
Method: as §2, with “Acid secretion assays were performed as previously described (Schumacher et al., 2015). hGOs were grown in the chambered coverglass (Thermo Scientific) and the chamber was placed on an inverted confocal microscope (Zeiss LSM 710), and experiments were performed under 5% CO2 and 37° C. conditions (incubation chamber, PeCon, Erbach, Germany). Freshly” for “Freshly”, “Histamine (100 μM;” left out

[6] = CHIR for three days (days 6-9), analysed at day 9

For `Cc1c[nH]c(-c2cnc(NCCNc3ccc(C#N)cn3)nc2-c2ccc(Cl)cc2Cl)n1` [CHIR99021], the PDX1 expression [1, 6] was “nearly complete repression”, the “SOX2 and GATA4 levels” value [1, 6] was “unaffected” and the “expression of IRX2, IRX3, and IRX5” value [1, 6] was “significantly increased expression”. For the same molecule, the “intestinal markers CDX2, MUC2, CCK, or SCT” value ([1]; CHIR-treated hGOs) was “did not exhibit a significant increase”, the fundic gene expression ([1]; continued CHIR treatment through at least day 29) was “stable induction of fundic gene expression” and the “specification of fundic identity” value ([1]; three-day pulse of CHIR from days 6-9, later stages) was “not sufficient to irreversibly specify a fundic identity”.

`O=C(NOC[C@H](O)CO)c1ccc(F)c(F)c1Nc1ccc(I)cc1F` [PD0325901] was tested, and the “parietal cell gene expression (ATP4A and ATP4B)” value (hFGOs [2]) was “substantial up-regulation”.

In the case of `NC(N)=Nc1nc(CSCCC(N)=NS(N)(=O)=O)cs1` [famotidine], the “histamine-induced decrease in luminal pH (acidification)” value (hFGOs [3]; 100 μM, pre-incubated at least 30 min before histamine 100 μM) is reported as “blocked”.

For `NCCc1c[nH]cn1` [histamine], the “luminal pH response” value (hFGOs [3]; histamine 100 μM) was “swift and marked decrease in luminal pH”, the “luminal pH response” value (hAGOs) was “no response” and the “acridine orange (AO) accumulation” value (hFGOs [4]) was “AO accumulated in acidified cellular vesicles”. For the same molecule, the “acridine orange (AO) accumulation” value [5] was “induced acridine orange (AO) dye accumulation in a canalicular-type pattern”.

B1: FGF10: growth factor (R&D Systems) added to fundic hGOs day 20-30 (protein, UniProt O15520 38-208, looked up)
Fibroblast growth factor 10: QALGQDMVSPEATNSSSSSFSSPSSAGRHVRSYNHLQGDVRWRKLFSFTKYFLKIEKNGKVSGTKKENCPYSILEITSVEIGVVAVKAINSNYYLAMNKKGKLYGSKEFNNDCKLKERIEENGYNTYASFNWQHNGRQMYVALNGKGAPRRGQKTRRKNTSAHFLPMVVHS
In the case of B1, the “glandular morphogenesis driven by CHIR” value ([1]; FGF10 50 ng/ml, day 20-30, data not shown) is reported as “enhance the glandular morphogenesis”.

B2: BMP4: growth factor, BMP signalling activator (R&D Systems) (protein, UniProt P12644 293-408, looked up)
Bone morphogenetic protein 4: SPKHHSQRARKKNKNCRRHSLYVDFSDVGWNDWIVAPPGYQAFYCHGDCPFPLADHLNSTNHAIVQTLVNSVNSSIPKACCVPTELSAISMLYLDEYDKVVLKNYQEMVVEGCGCR
B2 was tested, and the CDX2 expression ([1]; Noggin replaced with BMP4, with Wnt/β-catenin activation (CHIR)) was “robust expression of the intestinal transcription factor”, the “effect of PD03 on parietal cell gene expression” value (hFGOs [2]; BMP4 added to PD03, data not shown) was “could enhance the effect of PD03” and the “parietal cell gene expression (ATP4A and ATP4B)” value (hFGOs [2]) was “did not affect PC gene expression”.
